# Source: US20250376441A1, “NOVEL COMPOUND AND PHARMACEUTICAL COMPOSITION COMPRISING SAME AS ACTIVE INGREDIENT” (Industry-Academic Cooperation Foundation, Yonsei University, priority 2017, published 2025)
# Values joined by “and” are separate entries in the source; they are usually repeats but may differ in a detail not shown here. Equal values may be shown once. Read-outs that look alike come from different tables or passages of the source.
# Tests used:
# [1] = test system: amyloid-beta peptide1-42 degenerative neurological disease-induced mice; assay: Morris water maze test; format: in vivo, ICR mice
# Text: Six-week-old ICR mice (male) were purchased, and then examined for general health for 6 days while subjecting them to quarantine and acclimation under an environment of animal breeding room. Then, healthy individuals were selected and used for the experiment. Identification of each individual was made by marking the number of each individual on the tail using a permanent marker, and identification of a breeding box was made by attaching an individual identification card on which test number, test substance name, test item, date of acquisition, acclimation period, date of grouping, test period, sex/animal number, and person in charge are indicated.
# (§1) In order to induce a degenerative neurological disease, the experimental animals of Preparatory Example 1 were anesthetized by inhalation with 2.5% isoflurane. Then, 1 μg of amyloid-beta peptide1-42, a degenerative neurological disease-inducing substance, was administered to the animals at both hippocampal positions (AP: −2.3, L: ±2.0, H: −1.5) using a stereotaxic apparatus. […] For the administration, 1 μl was injected, at a flow rate of 0.2 μl/min, with a […] gas-tight glass syringe (Hamilton, Reno, NV, USA) using a perfusion pump (Pump 22, Harvard Apparatus, South Natick, MA, USA). Subsequently, the syringe was allowed to stand for 5 minutes and then removed.
# (§2) Then, a degenerative neurological disease was induced as in Preparation Example 2.
# After induction of the degenerative neurological disease, the following test was conducted after a one-day recovery period passed.
# A circular pool (diameter: 120 cm, height: 75 cm) was filled with water to a depth of 25±1 cm as in FIG. 4, and a 24 cm platform was prepared by hiding it 1 cm below the water surface. Space cues were installed on the four sides of the wall so that the aminals can identify locations, and skimmed milk powder was dissolved into water so that the animals cannot identify the platform with naked eyes. One day before the experiment, all the experimental animals were allowed to swim freely for 1 minute in a water bath having no platform, so that the animals can adapt to the swimming situation. After that, a test group was allowed to start, in any order, from two of the three quadrants except the quadrant where the platform was placed, and allowed to find the platform for 60 seconds. In a case where an animal finds the platform, the animal was allowed to stay thereon for 20 seconds. […] As soon as end of the position learning time, which is the 20-second staying time, the animal was allowed to start again from any quadrant, and the time and distance to reach the platform were measured. The procedure was performed four times a day, and all procedures were taken with a camera and analyzed with a video tracking system (Panlab, USA). Probe trials were made on the fifth day after the four-day experiment in toal was completed. The test group was allowed to swim freely for 90 seconds without the platform, thereby performing evaluation on whether the test group holds a memory of the platform location. The results are illustrated in FIGS. 5 to 7.
# [2] = test system: amyloid-beta peptide1-42 degenerative neurological disease-induced mice; assay: Passive avoidance response test; format: in vivo, ICR mice; conditions: p<0.05 vs beta-amyloid group
# Procedure: as §1, §2
# Under a situation where a chamber with a bright light and a dark chamber were connected to each other via a small passage, 4 hours before the experiment, the experimental animals were placed in the chamber with a bright light. The experimental animals instinctively enter the dark chamber. However, after 4 hours of fear learning carried out by using an electric shock to give aversive stimulus, in a case where the experimental animals are placed in the chamber with a bright light, the time until the experimental animals enter the dark chamber was measured and quantified. The results are illustrated in FIG. 10.
# [3] = test system: amyloid-beta peptide1-42 degenerative neurological disease-induced mice; assay: Rotarod test; format: in vivo, ICR mice; conditions: p<0.05 vs beta-amyloid group
# Procedure: as §1, §2
# As an experiment for evaluating effects of the samples on decreased motor coordination ability and motor sensation associated with a degenerative neurological disease, a rotarod experiment which examines the overall motor function of the test groups was conducted. The experimental method was as follows. […] After 24 hours, the time to lose balance and fall off the rotating cylinder of the same condition was measured, and the result is illustrated in FIG. 11.
# [4] = format: in vitro ADME; conditions: PAMPA
# Text: The results are illustrated in FIG. 17.
# [5] = test system: Salmonella typhimurium TA100
# Procedure: For each strain, treatment with a single concentration of 200 μg/plate was performed in triplicate and mutation was checked.
# NIH 3T3 = assay: Cytotoxicity test (Cyto X cell viability assay kit), NIH 3T3; format: cell-based; conditions: Mus musculus, NIH3T3
# Procedure: (§3) In order to identify whether the Preparation Example 6 according to the present invention is toxic to cells, a cytotoxicity test was conducted at the Korea Research Institute of Chemical Technology using the Cyto X™ cell viability assay kit ([…]).
# CHO-K1 = assay: Cytotoxicity test (Cyto X cell viability assay kit), CHO-K1; format: cell-based; conditions: Cricetulus griseus
# Procedure: as §3
# hERG channel = hERG channel (Homo sapiens, UniProt Q12809); assay: Cardiac stability test, hERG ligand binding assay; conditions: read-out: Inhibition rate
# hERG channel, sequence (Q12809 whole entry): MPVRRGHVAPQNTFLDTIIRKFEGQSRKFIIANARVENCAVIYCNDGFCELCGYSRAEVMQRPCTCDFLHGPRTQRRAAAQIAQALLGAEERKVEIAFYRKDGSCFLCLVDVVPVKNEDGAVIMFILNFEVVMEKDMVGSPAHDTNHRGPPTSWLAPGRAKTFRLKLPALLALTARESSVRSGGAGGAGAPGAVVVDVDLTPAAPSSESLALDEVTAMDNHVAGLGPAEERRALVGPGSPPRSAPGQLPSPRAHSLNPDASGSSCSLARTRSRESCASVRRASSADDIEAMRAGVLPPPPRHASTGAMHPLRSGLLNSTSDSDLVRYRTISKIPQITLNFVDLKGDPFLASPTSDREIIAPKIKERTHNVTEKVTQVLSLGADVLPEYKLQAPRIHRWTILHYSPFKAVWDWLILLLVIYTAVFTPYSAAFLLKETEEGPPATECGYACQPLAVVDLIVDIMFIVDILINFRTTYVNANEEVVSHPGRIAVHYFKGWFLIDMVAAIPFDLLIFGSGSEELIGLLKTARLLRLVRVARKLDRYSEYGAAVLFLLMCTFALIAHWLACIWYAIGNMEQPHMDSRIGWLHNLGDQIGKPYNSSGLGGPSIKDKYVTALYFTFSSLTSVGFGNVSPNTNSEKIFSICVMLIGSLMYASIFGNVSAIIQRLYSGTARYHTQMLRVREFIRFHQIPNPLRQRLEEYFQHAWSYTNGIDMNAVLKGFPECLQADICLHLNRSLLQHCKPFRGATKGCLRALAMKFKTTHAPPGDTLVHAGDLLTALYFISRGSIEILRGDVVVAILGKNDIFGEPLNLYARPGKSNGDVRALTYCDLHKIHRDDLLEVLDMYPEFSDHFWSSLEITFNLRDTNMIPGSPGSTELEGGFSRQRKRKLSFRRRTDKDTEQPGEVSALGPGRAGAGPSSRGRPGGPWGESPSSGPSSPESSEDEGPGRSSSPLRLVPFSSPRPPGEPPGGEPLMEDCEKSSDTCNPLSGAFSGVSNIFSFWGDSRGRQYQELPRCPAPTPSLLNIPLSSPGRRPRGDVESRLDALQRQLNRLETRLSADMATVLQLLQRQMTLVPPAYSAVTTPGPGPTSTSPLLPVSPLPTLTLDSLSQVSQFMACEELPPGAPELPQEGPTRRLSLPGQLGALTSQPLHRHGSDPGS
# [6] = Solubility by nephelometry; format: physicochemical; conditions: 5% DMSO in water, aqueous with cosolvent or surfactant or cyclodextrin, kinetic from dmso stock, DMSO 5%/water solvent
# Procedure: For a preliminary examination on clinical application of the Preparation Example 6, evaluation on lipophilicity and solubility was performed.
# Half-life test = assay: Half-life test
# Text: In order to identify whether the Preparation Example 6 according to the present invention can be orally administered, a half-life of the compound was checked. […] The results are illustrated in FIG. 18.
smiles,measurement,setting,value
"COc1ccc(OC)c(/C=C/C(=O)c2ccc(NS(=O)(=O)c3ccc(Cl)cc3)cc2)c1 [Preparation Example 6, (E)-4-Chloro-N-(4-(3-(2,5-dimethoxyphenyl)acryloyl)phenyl)benzenesulfonamide]",maximum platform escape latency,[1]; 1 mg,136.45 (±26.02) seconds
same,minimum time to find the platform,[1]; 1 mg,44.45 (±13.35) seconds
same,"escape latency, fourth trial (short-term memory)","[1]; 1 mg, fourth day, p<0.05",44.45 ± 13.35 s
same,"escape latency, first trial (long-term memory)","[1]; 1 mg, fourth day, p<0.05 vs beta-amyloid group",73.58 ± 9.14 s
same,maximum platform escape latency,[1]; 10 mg,128.59 (±23.32) seconds
same,minimum time to find the platform,[1]; 10 mg,40.64 (±10.94) seconds
same,"escape latency, fourth trial (short-term memory)","[1]; 10 mg, first day, p<0.05",76.14 ± 13.27 s
same,"escape latency, fourth trial (short-term memory)","[1]; 10 mg, fourth day, p<0.05",40.64 ± 10.94 s
same,"escape latency, first trial (long-term memory)","[1]; 10 mg, fourth day, p<0.05 vs beta-amyloid group",65.22 ± 13.65 s
same,"escape latency, fourth trial (short-term memory)","[1]; 10 mg, second day, p<0.05",59.87 ± 12.56 s
same,"escape latency, first trial (long-term memory)","[1]; 10 mg, second day, p<0.05 vs beta-amyloid group",95.05 ± 18.06 s
same,"escape latency, fourth trial (short-term memory)","[1]; 10 mg, third day, p<0.05",54.07 ± 14.38 s
same,"escape latency, first trial (long-term memory)","[1]; 10 mg, third day, p<0.05 vs beta-amyloid group",91.66 ± 12.68 s
same,maximum platform escape latency,[1]; 100 mg,125.66 (±19.35) seconds
same,minimum time to find the platform,[1]; 100 mg,36.48 (±9.54) seconds
same,"escape latency, fourth trial (short-term memory)","[1]; 100 mg, first day, p<0.05",73.79 ± 12.15 s
same,"escape latency, fourth trial (short-term memory)","[1]; 100 mg, fourth day, p<0.01",36.48 ± 9.54 s
same,"escape latency, first trial (long-term memory)","[1]; 100 mg, fourth day, p<0.05 vs beta-amyloid group",64.7 ± 12.63 s
same,"escape latency, first trial (long-term memory)","[1]; 100 mg, second day, p<0.01 vs beta-amyloid group",91.66 ± 12.68 s
same,"escape latency, fourth trial (short-term memory)","[1]; 100 mg, second day, p<0.05",59.62 ± 8.22 s
same,"escape latency, fourth trial (short-term memory)","[1]; 100 mg, third day, p<0.01",47.74 ± 10.81 s
same,"escape latency, first trial (long-term memory)","[1]; 100 mg, third day, p<0.05 vs beta-amyloid group",83.41 ± 11.46 s
same,staying time in the chamber with a bright light,[2]; 10 mg,156.87 ± 50.95 s
same,staying time in the chamber with a bright light,[2]; 100 mg,153.48 ± 34.71 s
same,time to keep balance on the rotating cylinder,[3]; 10 mg,48.62 ± 10.54 s
same,time to keep balance on the rotating cylinder,[3]; 100 mg,47.65 ± 8.13 s
same,degree of permeability,[4],medium value
same,membrane permeability measured value,[4],−4.4±0.152
same,Ames reverse mutation test outcome,"[5]; TA100, 200 μg/plate, with or without S9",negative
same,Reverse mutation [factor] with S-9 mix,"[5]; TA100, with S-9, factor versus control",[1.0]
same,Reverse mutation/dish (mean ± SD) with S-9 mix,"[5]; TA100, with S-9, Preparation Example 6 at 200 μg/plate, Benzo(a)pyrene concentration 2",117 ± 4
same,Reverse mutation [factor] w/o S-9 mix,"[5]; TA100, without S-9, factor versus control",[0.9]
same,Reverse mutation/dish (mean ± SD) w/o S-9 mix,"[5]; TA100, without S-9, Preparation Example 6 at 200 μg/plate, Sodium azide concentration 1",104 ± 12
same,IC50,NIH 3T3,> 100 µM
same,IC50,CHO-K1,> 100 µM
same,inhibition at 10 µM,hERG channel; hERG channel (ligand binding assay),< 1%
same,inhibition at 10 µM,hERG channel,≤ 1%
same,solubility,[6],206 µM and 94.4 µg/mL
same,half-life,Half-life test,≥ 3 h
